The record followed here is EP2742942A1, “Niacinamide for inducing generation of antimicrobial peptides” (Unilever N.V., priority 2012, dated 2014).

The subject of one assay is E. coli 10536. As to the kind of experiment: In vivo forearm study with lotion, residual E. coli by cup scrub method. The following applies: lotion with 3% niacinamide, forearm of human volunteers, twice a day. Here is the method:
To confirm the findings from the in vitro experiments, the effect of Niacinamide on healthy human volunteers was tested in vivo. The volunteers were asked to apply a lotion with and without niacinamide (3%) on their forearm twice a day. After 7 days of application, the spots were extracted in PBS and ELISA was performed for detection of Psoriasin and LL-37 AMPs.
Glycerol stock of E. coli (10536) was inoculated in 30 ml TSB medium and culture was incubated overnight at 37°C in shaker incubator. Overnight culture was sub cultured on TSA slants and incubated overnight at 37°C then the slants were stored at 4°C (once in 15 days, slants were prepared freshly).
E. coli culture from slant was sub cultured on TSA plate and incubated overnight at 37°C. Overnight grown plate culture of E. coli was suspended in 6 to 7 ml of Sodium phosphate buffer (10mM). Density of culture was adjusted to 1 OD620 using spectrophotometer and used for clinical studies.
This technique is included in the ASTM method, E2752 - 10 (Standard guide for evaluation of residual effectiveness of antibacterial). The cup and rod were made up of Teflon and the area of the cup is 2.84 cm^2. The cup was used to hold the buffer on skin and rod was used for scrubbing, for better recovery of skin AMP and/or residual bacteria from skin. The duration of scrubbing was 1 min. […]

The next assay deals with Psoriasin (S100A7). The experiment in a line: Psoriasin ELISA of keratinocyte culture supernatant. Format: cell-based, human. The following applies: detected by ELISA, keratinocytes. Here is the method: (§1) Human primary keratinocytes prepared from neonatal foreskin were obtained from (Lonza India) and cultured in serum-free keratinocyte growth medium with defined growth supplements (Invitrogen). Keratinocytes were cultured in 12 and 24 well tissue culture plates (BD Falcon) and treated cells at a confluence of 60-70%. Keratinocytes stimulation was performed in KGM with growth supplement and all experiment was done between passages 3 to 5.
Primary keratinocytes were seeded in 12-well plates (BD falcon). At 60 to 70% confluency, cells were treated with different concentration of Niacinamide for 72h. After 72 hours of incubation cell culture supernatant was stored at -70°C until used for ELISA. All ELISA reagents and samples were brought to room temperature prior to the assay. Cell culture supernatant samples were centrifuged at 5000 rpm for 10 minutes before use. 100 ↘l of undiluted sample of cell culture supernatant was used for checking the psoriasin level by using ELISA kit from CircuLex. The clinical samples were diluted in to 1:25 in dilution buffer and used 100↘l from diluted samples for checking psoriasin level by ELISA. In case of LL-37, 100 ↘l of undiluted samples from in vitro as well as clinical samples were used for checking LL-37 level by ELISA (Hycult Biotech).
For orientation: ELISA stands for enzyme-linked immunosorbent assay.

In the next assay the test system is S-100-A8. The experiment in a line: AMP secretion by primary keratinocytes, mass spectrometry of secretome (PSM). Format: cell-based. As to conditions: Niacinamide 1mg/ml, 72 hours; control sample 1. Here is the method:
(§2) The following procedure was used to determine the AMPs induced as a consequence of niacinamide on keratinocte cells. • 1. Primary keratinocytes were seeded in 12 well plates with 1 ml of KGM complete media. (Seeded 60,000 cells/well at Passage-4). • 2. Plates were incubated in the CO2 incubator for 48 hours. • 3. After 48 hours of incubation, cells were treated with and without Niacinamide 1mg/ml concentration in duplicate wells (fresh media was used for treatment). • 4. After 72 hours of incubation, cell culture supernatant was transferred in to 1.5 ml eppendorf tubes respectively. • 5. Samples were then passed through 20 kDa cutoff filters to remove high molecular weight proteins. • 6. Eluted samples, containing <20kDa proteins were transferred to 15ml sterile centrifuge tubes. • 7. Then, chilled acetone (HPLC grade) was added to the eluted samples (1 ml of sample:4ml of acetone) • 8. Tubes were transferred to -20°C for 24 hours to precipitate the proteins. • 9. After 24 hours, tubes were centrifuged at 14000g for 40 minutes at 4°C. • 10. The supernatant was discarded and the protein pellet was analysed using mass spectrometry for proteins.
(§3) The increased level of secretion of AMPs is measured by a PSM value (a peptide spectrum match scoring function) which is a relative measure of abundance of the peptide in the secretome. Table - 5

In another assay the test system is Elafin. Described as above. Format: cell-based. The following applies: Niacinamide 1mg/ml, 72 hours; control sample 1. Here is the method:
as §2, §3

In another assay the test system is Lactoferrin. Described as above. Format: cell-based. As to conditions: Niacinamide 1mg/ml, 72 hours; control sample 1. Here is the method: as §2, §3
Another assay relates to S100-A9. The assay is described as above. Format: cell-based. As to conditions: Niacinamide 1mg/ml, 72 hours; control sample 2. Here is the method: as §2, §3
The subject of another assay is Lipocalin -2. Described as above. The following applies: Niacinamide 1mg/ml, 72 hours; control sample 1. Format: cell-based. Here is the method: as §2, §3
The next assay deals with Lipocalin-1. The assay is described as above. Format: cell-based. As to conditions: Niacinamide 1mg/ml, 72 hours; control sample 0. Here is the method:
as §2, §3

The next assay has as its system S-100-A11. Described as above. As to conditions: Niacinamide 1mg/ml, 72 hours; control sample 2. Format: cell-based. Here is the method:
as §2, §3

The next assay concerns Lysozyme C. The description is as above. Format: cell-based. The following applies: Niacinamide 1mg/ml, 72 hours; control sample 2. Here is the method:
as §2, §3

Assay [1] concerns psoriasin gene expression. As to the kind of experiment: Psoriasin gene expression in primary keratinocytes, quantitative real-time PCR. Format: cell-based, human. Here is the method:
as §1
(§4) NHEKs were cultured in 12-well plates (BD, Falcon) at 6 × 10^4 cells per well. After 24h of incubation, 50% media was replaced with fresh media. On day 3, cells were treated with different concentrations of Niacinamide with fresh media for 16-18 hours. Cells were harvested in RLT buffer (Qiagen) and samples were stored at -70°C till used for RNA isolation.
(§5) Total RNA was isolated using RNeasy Mini kit from Qiagen, according to the manufacturer's instructions. […]
(§6) Real time PCR was carried out using SYBR green method as per the manufacturer's (Bio-Rad, USA) instructions using thermal controlled Chromo4 machine (Bio-Rad, USA). 5µl of 1:10 diluted sample of cDNA and 1.5pmole of specific primers were used in each reaction by using a standardized PCR program (i.e. 94°C for 5 minutes followed by 50 cycles of "94°C for 15 seconds, 60°C for 30sec, 72°C for 30 seconds) and results were analysed by using 2^-ΔΔCT method. […]

For the next assay, the system named is E. coli. The experiment in a line: Human volunteer study with Vaseline healthy white cream, E. coli count on forearm. As to conditions: two times per day for 1 day, control 4.3. Format: in vivo. Here is the method:
An experiment using the following protocol was conducted: • 1. Volunteers were given Lux™ soap for use and asked not to use any other soap or moisturizers on their forearm for 7 days before the start of the study. • 2. Volunteer were be asked to apply Vaseline™ healthy white base cream and Vaseline™ healthy white formulated with Niacinamide (1%, 2% and 3%) at various spots on the forearm. • 3. Volunteers were asked to repeat […] for two times per day for 1 day, morning after bath and night just before sleep. The volunteers were asked not to wash the forearms after application of formulations at night. • 4. On day 2, the forearms were washed by the investigator with a non-antibacterial soap bar and asked the volunteers to wait for 6 hours under controlled conditions (24 ±2°C and 45%±5% RH) • 5. After 6 hours of waiting, ∼10^6 E. coli were applied on the forearm to each spot separately. The contact time of E. coli on skin was 15 minutes. • 6. After 15 minutes, the sample was extracted from the forearm using the cup-rod method. • 7. E. coli was counted using standard microbiological method.

The test system of the next assay is LL-37 gene expression. As to the kind of experiment: LL-37 gene expression in primary keratinocytes, quantitative real-time PCR. Format: cell-based. As to conditions: Homo sapiens, Keratinocyte, 18 hours, Niacinamide 1.22 mg/ml, control = 1.0, read-out: Fold change (LL-37 gene expression). Here is the method: as §1, §4, §5, §6
In general terms: Quantitative PCR measures a nucleic acid by following its amplification.

With `NC(=O)c1cccnc1` [Niacinamide], the “Residual log of E.Coli measured after one day of applying a composition” value in the assay with E. coli 10536 (n= 28, basal 4.21, lotion without niacinamide 3.44) is 2.31. For the same compound, the “Residual log of E.Coli measured after 7 days of applying a composition” value in the assay with E. coli 10536 (n= 34, basal 4.41, lotion without niacinamide 3.56) amounted to 2.39. In the assay with Psoriasin (S100A7), the “secretion of psoriasin AMP (in words)” value is recorded as “able to induce the secretion of psoriasin AMP”. Also, the “PSM value with niacinamide treatment, S-100-A8” value with S-100-A8 stood at 3. For the same compound, the “PSM value with niacinamide treatment, Elafin” value with Elafin is given as 3. Further, in the assay on Lactoferrin, the “PSM value with niacinamide treatment, Lactoferrin” value is reported as 7. The “PSM value with niacinamide treatment, S100-A9” value in the assay on S100-A9 is given as 4. In addition, the “PSM value with niacinamide treatment, Lipocalin -2” value in the assay with Lipocalin -2 amounted to 4. The “PSM value with niacinamide treatment, Lipocalin-1” value in the assay on Lipocalin-1 was found to be 2. Moreover, in the assay on S-100-A11, the “PSM value with niacinamide treatment, S-100-A11” value came to 5. Moreover, in the assay on Lysozyme C, the “PSM value with niacinamide treatment, Lysozyme C” value is 4. Moreover, in [1] (1.22 mg/ml), the “induction of psoriasin gene expression (in words)” value is listed as “unable to induce psoriasin gene expression”. In addition, the fold induction at 1220 µg/mL in [1] (Homo sapiens, Keratinocyte, primary keratinocytes, 18 hours, Niacinamide 1.22 mg/ml, control = 1.0, read-out: Fold change (psoriasin gene expression)) was found to be 1.1; in the assay on LL-37 gene expression it was 2.4. Moreover, the “Residual log of E. Coli” value turned out to be 3.5 with E. coli (1 % niacinamide in Vaseline healthy white cream), 3.0 with E. coli (2% niacinamide in Vaseline healthy white cream) and 2.7 in the assay with E. coli (3% niacinamide in Vaseline healthy white cream).
